In US9744175B2, “Compositions of combinations of non-covalent DNA binding agents and anti-cancer and/or anti-inflammatory agents and their use in disease treatment” (INDUS PHARMACEUTICALS, INC., priority 2012, dated 2017):
Several values for one entry are separate records, joined by “and”; a condition that tells them apart may be missing. Equal entries are not always repeated.

What was measured:
SW403 = assay: Growth inhibition in tumor cell lines (Table 2); type: cell-based, human; settings: SW403, colon, WT (EGFR over expression)
HCT116 (mlh−) = assay: siRNA inhibition of p53 and REV functions, alamar blue growth inhibition; type: cell-based, human; settings: for Fold improvement in IC50, p53: p53 siRNA vs control; for Fold improvement in IC50, rev: rev siRNA vs control; for IC50: no siRNA knock out, read-out: IC50, Control
Method: (§1) siRNA specific for different genes is purchased from Dharmacon (Thermo. Fisher Scientific Dharmacon Products, Lafayette, Colo. 80026) and the protocol recommended by the supplier is utilized. Confluent cells are trypsinized and 5000 cells are seeded in a well in the presence or absence of siRNA in 100 μL medium. The cells are incubated with siRNA for two days. A non-covalent DNA binding agent of the invention is added in a 10 μL volume and incubated for another 48 hours. After treatment with the agent, the medium is replaced with 1% alamar blue containing medium to measure fluorescence after two hours.
as §1, with “from Dharmacon (Thermo Fisher Scientific” for “from Dharmacon (Thermo. Fisher Scientific”, “two hours. […] The results are presented in FIGS. 14-18 (SEQ ID NO:3-12, respectively) and Table 7.” for “two hours.”

[1] = Intravenous and oral pharmacokinetics in male Sprague-Dawley rats; type: in vivo, rat; settings: for AUC0-inf / AUC0-t / Cmax / Tmax: rat blood; for AUC0-inf / AUC0-t / Cmax: mean ± SD; for Tmax: median; for T1/2: harmonic mean; for F (oral absolute bioavailability): oral 20 mg/kg vs IV 3 mg/kg, dose-normalised AUC0-inf; for clearance as share of normal liver blood flow in rat (55 mL/min/kg) / mean volume of distribution as multiple of total body water: intravenous administration
Method: Intravenous and oral pharmacokinetic studies are conducted on the novel non-covalent DNA binding agents, NSC 718813, NSC 723734 and NSC 726260, in male Sprague-Dawley rats. The studies are conducted in a parallel design with two groups of four male rats each for intravenous and oral administration of the test agents. The protocols for the studies are approved by the appropriate institutional animal care and use committee.
Groups of rats designated to receive oral doses of the novel non-covalent DNA binding agents of the invention molecules receive an oral dose of 20 mg/kg in a formulation vehicle comprised of N,N-dimethylacetamide (DMA), polyethylene glycol 400 (PEG400), ethanol, Cremophor EL and water (10:10:10:5:65 v/v). The dose volume for the oral doses of the test compounds is 8 mL/kg. Groups of rats are randomized to receive intravenous doses of agents. These rats receive a single intravenous bolus dose of 3 mg/kg of the test compound in a vehicle comprised of DMA:PEG400:ethanol:Cremophor EL:0.9% sodium chloride (saline) (10:10:10:5:65 v/v). The dose volume for intravenous doses of test agents is 1 mL/kg.
Predose blood samples are obtained from all rats from both, oral and intravenous dosing groups. For the intravenously dosed rats, blood samples (100 uL each) are obtained at 0.083, 0.25. 0.5, 1.0, 2.0, 4.0, 8.0, 12.0 and 24.0 hours post-dose. For the oral dose groups, the sampling times are identical to the intravenous dose group, except that the 0.083 hour sample is not collected. Following the collection of the blood samples, an equal volume of water is added to the blood sample to hemolyze the blood sample and the samples are stored frozen at −70° C. until bioanalysis.
Plasma samples are analyzed for the concentration of the test non-covalent DNA binding agents of the invention using an HPLC method with mass spectrometric (MS/MS) detection, following a liquid:liquid extraction of the plasma samples using a dichloromethane:ethyl acetate (20:80) mixture. To a 100 μL aliquot of sample, 50 μL of an internal standard (NSC 723732) is added. After mixing the internal standard wen, 2.5 mL of the extracting solvent (dichloromethane:ethyl acetate 20:80 v/v) is added. The mixture is vortexed for one minute and the samples are centrifuged at 3000 rpm for 3 minutes. Approximately 2 mL of the supernatant is taken from the centrifuged tubes and the sample is dried under a nitrogen stream at 50° C. The residue is reconstituted with 100 μL of the mobile phase and 20 μL is injected into the HPLC system for analysis. The mobile phase is comprised of milli-Q water:acetonitrile:formic acid (20:80:0.05) adjusted to pH 7.5 with ammonia.
The analysis of the test agent concentration is conducted by an HPLC method using a Shimadzu Prominence HPLC system and the eluent is analyzed using an API 4000 LC-MS/MS system (Applied Biosystems). The samples are analyzed on a HyPurity Advance, 50×4.6 mm, 5 u, Thermoelectron column. An injection volume of 20 μL is used for the analytical sample and the flow rate of the mobile phase is 0.6 mL/minute. Mass spectrometric analysis is conducted on the eluent using the API 4000 LC-MS/MS system and the mass parameters are analyzed for MRM transitions using NSC 723732 as the internal standard, in a positive ionization mode at a temperature of 400 C.

H1299 (p53−) = assay: siRNA inhibition of MMR functions, alamar blue growth inhibition; type: cell-based, human; settings: for Fold improvement in IC50, mlh1: mlh1 siRNA vs control; for Fold improvement in IC50, msh2: msh2 siRNA vs control; for IC50: no siRNA knock out, read-out: IC50, Control
Method: as §1
as §1, with “from Dharmacon (Thermo Fisher Scientific” for “from Dharmacon (Thermo. Fisher Scientific”, “two hours. […] The results are presented in FIGS. 14-18 (SEQ ID NO:3-12, respectively) and Table 7.” for “two hours.”

[2] = system: SW620 colon tumor xenograft; assay: SW620 colon tumor xenograft model; type: in vivo, mice
[3] = system: homologous recombination repair deficiencies; assay: Synthetic lethality with homologous recombination repair deficiencies (FIG. 8); type: cell-based; settings: FIG. 8 legend
[4] = system: tumor cells that have K-RAS mutations and/or PTEN or mismatch repair gene deficiencies; assay: Growth inhibition, summary of potency in text; type: cell-based, human; settings: among the three compounds tested, tumor cell lines
Method: Three novel non-covalent DNA binding agents of the invention, NSC 718813, NSC 723734 and NSC 726260, are tested in five different EGFR-resistant, K-Ras mutant cancer cell lines. These cell lines represent colorectal (SW480, SW620 and HCT116) and breast cancer (MDA-MB-231 and […]).
The in vitro assays to evaluate the anticancer potential of non-covalent DNA binding agents were measured by using one or more of the assays described below.
Tumor cells are plated in 96 well plates at a density of 8,000 to 10,000 cells per well in 100 uL volume and grown overnight. On the second day, the cells are supplemented with medium containing an appropriate dilution of the compounds to be tested. The cells are treated with the test compounds for two more days and the growth medium was replaced with fresh medium containing 3% Alamar Blue, incubated for 2-3 hours and plates are read in a SpectraMax Gemini XS fluorescence plate reader (Molecular Devices).

[5] = IV-bolus 3 mg/kg, rat, listed as NSC723734, 3 mg/kg

SMILES	IC50 (SW403) [nM]	Fold improvement in IC50, p53 (HCT116 (mlh−)) [fold]	Fold improvement in IC50, rev (HCT116 (mlh−)) [fold]	Vdss ([1]; IV-bolus 3 mg/kg, rat) [L/kg]	AUC0-inf ([1]; IV-bolus 3 mg/kg) [ng·h/mL]	AUC0-t ([1]; IV-bolus 3 mg/kg) [ng·h/mL]	Cmax ([1]; IV-bolus 3 mg/kg) [ng/mL]	Tmax ([1]; IV-bolus 3 mg/kg) [h]	T1/2 ([1]; IV-bolus 3 mg/kg, rat) [h]	CLblood ([1]; IV-bolus 3 mg/kg, rat, 3 mg/kg)	F (oral absolute bioavailability) ([1]; rat) [%]	AUC0-inf ([1]; oral solution 20 mg/kg) [ng·h/mL]	AUC0-t ([1]; oral solution 20 mg/kg) [ng·h/mL]	Cmax ([1]; oral solution 20 mg/kg) [ng/mL]	Tmax ([1]; oral solution 20 mg/kg) [h]	T1/2 ([1]; oral solution 20 mg/kg, rat) [h]	Fold improvement in IC50, mlh1 (H1299 (p53−)) [fold]	Fold improvement in IC50, msh2 (H1299 (p53−)) [fold]	IC50 (H1299 (p53−)) [nM]	IC50 (HCT116 (mlh−)) [nM]	other results
COc1cc2c(cc1OCCCCCOc1cc3c(cc1OC)C(=O)N1CCC[C@H]1C(=O)N3)N=C[C@@H]1CCCN1C2=O [NSC 718813]	210	12.5	7.1	1.5 ± 0.4	2424 ± 309	2376 ± 304	5723 ± 1005	0.08	2.2 ± 0.4	approximately 20 mL/min/kg	2	345 ± 142	303 ± 129	112 ± 32	0.5	1.8 ± 0.6	1.3	1.9	600	–	CLblood ([1]; IV-bolus 3 mg/kg, rat, listed as NSC 718813/1, 3 mg/kg): 20.0 ± 2.9 mL/min/kg; time with rat blood concentrations well above in vitro GI50 and/or TGI ([1]; intravenous 3 mg/kg): at least 4 hours; time with measurable blood levels post-dose ([1]; oral dose 20 mg/kg): up to 8 hours; metabolic stability compared with naturally occurring antitumor antibiotic analogs ([1]; rat, inferred from systemic clearance): better metabolic stability; tumor burden in SW620 colon tumor xenograft model ([2]; Q1 Dx5 IV followed by Q4Dx3 IP administration): reduces tumor burden
COc1cc2c(cc1OCCCCN1CCN(CCCCOc3cc4c(cc3OC)C(=O)N3CCC[C@H]3C=N4)CC1)N=C[C@@H]1CCCN1C2=O [NSC 723734]	550	2.2	2.2	–	4405	4246 ± 311	4053	0.083	6.3	11.4 ± 0.5 mL/min/kg	0.7	216	196 ± 93	90.5 ± 56	0.25	2.3 ± 0.7	2.0	2.6	900	300	Vdss ([1]; IV-bolus 3 mg/kg, rat, 3 mg/kg): 3.2 ± 0.3 L/kg; CLblood [1, 5]: 11 mL/min/kg; Vdss [1, 5]: 3 L/kg; clearance as share of normal liver blood flow in rat (55 mL/min/kg) ([1]; rat): about 20%; mean volume of distribution as multiple of total body water ([1]; rat): about 4 times; F (oral absolute bioavailability) ([1]; rat, listed as NSC723734): approximately 1%; Cmax ([1]; oral solution 20 mg/kg, listed as NSC723734): 91 ng/mL; dose-reduction index (DRI) of combination with cisplatin ([2]; SW620 colon tumor xenograft mouse model): significant dose-reduction index (DRI); quantitative analysis of combination with cisplatin ([2]; combination doses achieving >50% efficacy): synergistic with cisplatin; synergy with cisplatin in SW620 colon tumor xenograft mouse model ([2]; intermittent IP administration of the two drugs): excellent synergy with cisplatin; synergy with cisplatin at lower (minimally active) cisplatin dose ([2]; intermittent IP administration, SW620 xenograft in mice): synergistic with cisplatin and restores antitumor activity of cisplatin; activity in SW620 colon tumor xenograft model ([2]; intraperitoneal, once daily administration for 7 days): superior activity to NSC718813; reduction in SW620 colon tumor xenograft ([2]; intravenous and intraperitoneally administered): dose-dependent reduction; synthetic lethality with homologous recombination repair deficiencies [3]: synthetic lethal
COc1cc2c(cc1OCCCC(=O)Nc1ccc3ccc4cccc5ccc1c3c45)N=C[C@@H]1CCCN1C2=O [NSC 726260]	1020	3.8	5.0	1.9	5112	5058 ± 874	5587	0.083	4.8	10.4 mL/min/kg and 10.4 ± 2.0 mL/min/kg	–	2536	2474 ± 844	438	4.0	4.6 ± 1.7	–	–	–	750	clearance as share of normal liver blood flow in rat (55 mL/min/kg) ([1]; rat): about 20%; mean volume of distribution as multiple of total body water ([1]; rat): about 3 times; pharmacological activity in SW620 colon tumor xenograft model ([2]; combined IV and IP administration): limited pharmacological activity; synthetic lethality with homologous recombination repair deficiencies [3]: synthetic lethal; IC50 [4]: ~1000 nM
